Assay results as given in patent US12185720B2, “Chitooligosaccharides and methods for use in enhancing plant growth” (NOVOZYMES BIOAG A/S, priority 2011, dated 2025).

Test system: Tomato seeds of hybrid tomato var. Royal Mounty
Test: In vitro tomato seedling root growth bioassay (agar medium)
Format: in vivo
Details: day 7; control water
Method: Tomato seeds of hybrid tomato var. Royal Mounty were surface sterilized with 10% bleach solution for 10 minutes followed by 3 rinses with sterilized distilled water. Seeds were then dried in a laminar air flow hood for 3 hours. Seeds were then placed in petri-dishes on solidified agar medium containing various concentrations of different sources of the LCO illustrated in FIG. 1b (manufactured by Darmstadt, Germany and Grenoble, France) (also referred to in the examples as the “soybean LCO”) and the inventive CO illustrated in FIG. 2a (also referred to in the examples as the “pea CO” or “CO-V”). Seedling roots were measured by a hand ruler and root fresh weights were taken in a micro balance at day 7. Growth study was done in a growth chamber at 22° C.

Substance: LCO-V(C18:1, MeFuc) [Soybean LCO, reference compound]
- root fresh weight, compared to control seedlings: significantly better than control seedlings
- root length, compared to control seedlings: significantly better than control seedlings
